Measurements: paper PMC12040169 (PLOS Biology, 2025)

experiment: in vitro; conditions: human, hela cells, % viability

SMILES	viability at 28.5 h, 10 µM
CS(=O)(=O)NC1CCN(c2nc(C(F)(F)F)nc3ccsc23)CC1 [CBK304592]	109%
CCS(=O)(=O)NC1CCN(c2nc(C(F)(F)F)nc3ccsc23)CC1 [CBK304593]	108%
CS(=O)(=O)N1CCN(c2nc(C(F)(F)F)nc3ccsc23)CC1 [CBK304594]	91.1%
Cc1ccccc1C(=O)N1CCN(Cc2cc(=O)n3ccsc3n2)CC1 [CBK304595]	90.9%
Nc1nnc(SCCC(=O)N2CCN(c3ccc(F)cc3)CC2)s1 [CBK304597]	84.7%
CC(=O)Nc1cccc(-n2nnnc2SCc2noc(C)n2)c1 [CBK304599]	90.9%
CC(C)(C)OC(=O)N1CCC(NCc2ccccn2)CC1 [CBK304603]	97.1%
CCc1ccc(C(O)CNC2CCN(C3CCCCC3)CC2)cc1 (centres unmarked) [CBK304604]	88.2%
COc1ccc(CC(=O)NC(c2nnc3ccccn23)C(C)C)cc1 (centres unmarked) [CBK304607]	89.4%
OCCn1ncc2c(NCc3nncn3-c3ccccc3)ncnc21 [CBK304608]	98.5%
Cc1ccc(CN(Cc2ccco2)CC(O)COCc2ccco2)s1 (centres unmarked) [CBK304610]	96.7%
Cn1cc(C2CCCCN2C(=O)c2cccc(C#N)c2)cn1 (centres unmarked) [CBK304611]	87.9%
Cc1cnc2c(C(=O)N3CCCC3c3ccccn3)cnn2c1 (centres unmarked) [CBK304612]	91.8%
COc1ccc(CC(=O)NCCc2nnc3ccccn23)cc1 [CBK304613]	74.7%
COc1ccc2c(c1)c(C(=O)NCCn1nc(C)cc1C)c(C)n2C [CBK304615]	78%
COC(=O)c1cc(S(=O)(=O)NC2CCCc3ccccc32)cn1C (centres unmarked) [CBK304616]	98.4%
Cc1cccn2cc(CCNC(=O)N[C@H](C)C(=O)N(C)C)nc12 [CBK304617]	110%
CN(CC(=O)Nc1sc2c(c1C#N)CCCC2)Cc1cnn(C)c1 [CBK304618]	92.8%
CCOC(=O)N1CCN(S(=O)(=O)c2ccc3c(c2)n(C)c(=O)n3C)CC1 [CBK304620]	86.8%
CN(CC(=O)Nc1sc2c(c1C#N)CCCCC2)Cc1cnn(C)c1 [CBK304621]	94.3%
COc1ccc2cc(C(=O)N3CCc4[nH]c(=O)c(C#N)cc4C3)[nH]c2c1 [CBK304622]	87.8%

SMILES	viability at 28.5 h, 10 µM
CC1CCc2c(sc(NC(=O)c3cccs3)c2C#N)C1 (centres unmarked) [CBK304625]	101%
COc1ccc(CNC(=O)C2CCCN(S(=O)(=O)c3cccs3)C2)cc1 (centres unmarked) [CBK304628]	95.8%
CC(=O)Nc1cccc(C(=O)N2CCOC(CCc3ccccc3)C2)c1 (centres unmarked) [CBK304629]	88.7%
O=c1cc(N2CCCC2)cnn1Cc1cscn1 [CBK304635]	84.1%
COc1ccc(CNC(=O)c2cc(S(=O)(=O)N3CCCC3)cn2C)cc1 [CBK304637]	95.2%
CC(C)n1cnnc1CN(C)C(=O)CCc1nc2ccccc2s1 [CBK304638]	97%
COc1cccc(C(=O)NCCC(=O)N2CCOCC2)c1 [CBK304639]	104%
O=C(Cn1nc2n(c1=O)CCCCC2)NCc1ccccc1Cl [CBK304642]	86.6%
O=C(CCCn1cccn1)N1CCOC(c2ccc(Cl)cc2)C1 (centres unmarked) [CBK304643]	79.1%
Cc1nn(C)c(C)c1C(=O)Nc1sc2c(c1C#N)CCC(C)C2 (centres unmarked) [CBK304645]	54.9%
Cc1ccc(C)c(NC(=O)CCc2c(C)[nH]c3ncnn3c2=O)c1 [CBK304646]	94.5%
O=C(Cn1nc2n(c1=O)CCCC2)NCc1ccccc1Cl [CBK304647]	104%
CC(=O)OC1CCN(C(=O)c2cccc(C#N)c2)CC1 [CBK304648]	93.3%
CCCN(CCC)C(=O)Cn1cnc2ccc(Cl)cc2c1=O [CBK304651]	78.2%
CC(=O)c1cccc(NC(=O)Cn2nc(C)ccc2=O)c1 [CBK304653]	101%
Cn1c(=O)c2c(ncn2CC(=O)NCCOc2ccccc2)n(C)c1=O [CBK304654]	95.5%
Cn1ccnc1C(O)C1CCN(C(=O)NCCc2cccc(F)c2)CC1 (centres unmarked) [CBK304657]	80.5%
CNS(=O)(=O)CCNC(=O)N1CCCN(Cc2ccc(F)cc2)CC1 [CBK304658]	88.8%
Cc1nn(CC(=O)NCC(c2cccnc2)N2CCOCC2)c(C)c1Cl (centres unmarked) [CBK304659]	118%
O=C(NCCCn1ccnn1)c1cccc(S(=O)(=O)N2CCCCC2)c1 [CBK304660]	104%
COc1cccc(OCC(=O)NCC(c2cccs2)N2CCOCC2)c1 (centres unmarked) [CBK304664]	91.6%

SMILES	viability at 28.5 h, 10 µM
Cc1ocnc1C(=O)NCC1CCN(c2ccccc2F)C1 (centres unmarked) [CBK304671]	92.6%
Cc1ccc(C)c(C(C)NC(=O)C2CCCN(S(C)(=O)=O)C2)c1 (centres unmarked) [CBK304672]	96.6%
Cc1cc(C)c(CNC(=O)C2CC(=O)N(Cc3ccccn3)C2)cn1 (centres unmarked) [CBK304673]	89.8%
COc1ccc(CCC(=O)NCC(c2cccs2)N2CCOCC2)cc1 (centres unmarked) [CBK304674]	107%
O=C(NCCCn1ccnc1)c1cccc(S(=O)(=O)N2CCCCC2)c1 [CBK304687]	111%
CCOC(=O)N1CCC(NS(=O)(=O)c2cc(C(=O)OC)n(C)c2)CC1 [CBK304688]	92.3%
CCOc1cc(NC2CCN(C(=O)Cc3cc(C)on3)CC2)ncn1 [CBK304689]	113%
O=C(CCc1ccncc1)N1CCOC(c2ccc(F)cc2F)C1 (centres unmarked) [CBK304692]	98.3%
CCCC(=O)N(C)C(CO)c1cc(OC)ccc1Br (centres unmarked) [CBK304694]	95.4%
Cc1nsc(NCc2ccccc2CN2CCC(O)CC2)c1C#N [CBK304695]	95.1%
CC(C)Cc1nsc(NC2CCCN(c3ccn(C)n3)C2=O)n1 (centres unmarked) [CBK304696]	91.2%
CNCC1CCN(C(=O)c2ccc(Oc3cccnc3)cc2)C1 (centres unmarked) [CBK304697]	91.5%
Cc1c(C(=O)N(C)C2CCNC2)nnn1-c1ccc2ncccc2c1 (centres unmarked) [CBK304698]	94.5%
COc1ccnc(N2CCC(Oc3cccnc3N(C)C)C2)n1 (centres unmarked) [CBK304699]	92.4%
COCCc1nsc(N2CCC(N(C)c3cccnn3)CC2)n1 [CBK304701]	94.1%
Cc1ccc(CS(=O)(=O)N2CCN(CCO)C(C)C2)c(F)c1 (centres unmarked) [CBK304702]	105%
Cc1csc(NC(=O)CN2CCOC(c3ccc(F)cc3)C2)n1 (centres unmarked) [CBK304703]	116%
Cc1nonc1-c1csc(CC(C)n2cc(Cl)cn2)n1 (centres unmarked) [CBK304704]	92.2%
Cc1nc(S(=O)(=O)Cc2c(F)cccc2Cl)n(CC2CCCO2)c1C (centres unmarked) [CBK304706]	87.9%
CC(Cc1nc(C2CC2)cs1)n1cc(Cl)cn1 (centres unmarked) [CBK304707]	90.1%
Cc1nnnn1-c1cc(NC(=O)N(C)C(C)C)ccc1F [CBK304708]	93.2%

SMILES	viability at 28.5 h, 10 µM
Cc1nc(CN2CCN(c3cccc(C(F)(F)F)n3)CC2)cs1 [CBK304709]	93.9%
CC(C)(C)OC(=O)N1CCCCC1(C)c1nnc(-c2cccnc2)o1 (centres unmarked) [CBK304714]	90.2%
CC(Cc1nc(C2(Cl)CC2)cs1)n1cc(Cl)cn1 (centres unmarked) [CBK304715]	85.5%
COCc1nc2n(n1)CC(NC(C)C(C)OCc1ccccc1)CC2 (centres unmarked) [CBK304724]	95.8%
CCc1ccc2c(c1)C(CCNC(=O)c1ncoc1C(F)(F)F)C(=O)N2 (centres unmarked) [CBK304725]	99.4%
Cc1nn(C)c(S(=O)(=O)N2CCOCC2c2cccc(F)c2)c1C(F)F (centres unmarked) [CBK304729]	86.3%
CCc1ccc(C(O)CNC2CCN(Cc3cscn3)CC2)cc1 (centres unmarked) [CBK304733]	108%
Cc1c(NC2CCN(c3ccc(C#N)cc3)C2=O)cnn1C1CCCC1 (centres unmarked) [CBK304735]	113%
CCC(NC1CCc2nc(COC)nn2C1)C1CCC1 (centres unmarked) [CBK304739]	87.8%
Cc1ccc2[nH]c(CNC(=O)c3cn[nH]c3C3CCCCN3)nc2c1 (centres unmarked) [CBK304741]	100%
CN(Cc1ccc(Cl)c(F)c1)C(=O)c1cn[nH]c1C1CCCCN1 (centres unmarked) [CBK304742]	103%
NC(=O)c1cn[nH]c1C1CCCCN1Cc1cccc2c1CCOC2 (centres unmarked) [CBK304745]	83.1%
N#Cc1cc(Cl)ccc1CN1CCCCC1c1[nH]ncc1C(N)=O (centres unmarked) [CBK304746]	88.5%
Cc1noc(C2(O)CCN(Cc3cccc(Cl)c3F)C2)n1 (centres unmarked) [CBK304748]	99.3%
CCn1nncc1CNC1CCc2[nH]c3ccc(C)cc3c2C1 (centres unmarked) [CBK304749]	98.3%
CCOc1cccc(CN2CCCCC2c2[nH]ncc2C(N)=O)n1 (centres unmarked) [CBK304750]	98.9%
CC(C)OCC1CN(c2cc(CO)c(F)cn2)CCO1 (centres unmarked) [CBK304755]	89.7%
Cn1nnc2cc(NCC34CC3CN(C(=O)OC(C)(C)C)C4)ccc21 (centres unmarked) [CBK304758]	92.7%
CCOC(=O)C1CSCN1C(=O)c1cnn(C(CC)CC)c1C (centres unmarked) [CBK304759]	106%

same assay, conditions: human, hela cells, % viability, bulk resorufin, single well

SMILES	viability at 28.5 h, 10 µM
O=C(Cn1c(=O)oc2cc(Cl)ccc21)N1CCC2(CC1)OCCO2 [CBK304652]	97%
